The values that follow come from patent US20240065982A1 (priority 2020, published 2024).

This data set in a line: Clearance of ionizable lipid from the mouse lung following chamber nebulization of mRNA LNP (LC-MS). The format is in vivo. The method, then: On the day of dosing the LNP formulations were diluted to 1.2 mg/mL with PBS and 1.25 mL (1.5 mg dose) of these solutions are placed in Aerogen Solo nebulizer units which sit in a housing attached to a mouse chamber of dimensions 9″×4″×5″ (1×w×h) with a carbon filter attached. Six (6) Balb/C mice are dosed in the chamber at a time. An airflow of 1.5 L/min was forced through the nebulizer housing unit and the nebulizer turned on. During nebulization, some of the LNP condensed from the nebulizer and was collected and passed back through the nebulizer. This continued until no condensate was collected. Upon nebulization to dryness, the mice remained in the chamber for an extra 1-2 min until the LNP vapor dissipated. Complete nebulization of the LNP typically took ˜15 min. At each time points of 0.25 h (immediately after nebulization), 1 h, 6 h and 24 h, three (3) animals per formulation were euthanized with a lethal dosage of ketamine/xylazine and the lungs were excised and cut into ˜100 mg sections. These were placed in FastPrep tubes, fast frozen in liquid N2, and stored at […] until LC-MS analysis.
To the lung sections were added 5 volumes of PBS (e.g. to 50 mg of lung added 250 μL of PBS). These were then homogenized in a FastPrep instrument using 3 cycles of 15 sec each, with a speed of 5.0 m/s and were centrifuged at low speed. Spiked lung homogenate standards were prepared for each cationic lipid (103, 101 and 102) using the lung homogenates of mice dosed with PBS. For each cationic lipid, 10 standards were prepared: the highest standard at a concentration of 12,500 ng/mL with serial dilution by ½ down to 24.4 ng/mL. 20 μL of the homogenates (samples and standards) was added to 225 μL of ISS (IPA containing 100 ng/mL 1-B11 internal standard) in 96-well plates. The plates were mixed by pipetting up and down and were centrifuged at 2500 rpm for 15 min. The supernatant from these extractions were analyzed by LC-MS. By comparing the signal obtained for each sample to the appropriate standard curves for each cationic lipid (103, 101 and 102), the ng/mL of cationic lipid in each homogenate was determined. These values were then normalized to the exact mass of lung tissue that was analyzed. For the Non-biodegradable cationic lipid, the resulting average (n=3) ng 103/g of lung values were plotted without any further manipulation. For the Hydrolyzable cationic lipid, the ng/g of lung values at each time point for both 101 and 102 were combined to give the average (n=3) ng cationic lipid/g of lung values.

The mark [1] stands for this setting: 24 h post administration, nebulized mRNA LNP, mice.

For the compound `CCCCC/C=C\CCCO[Si](CCCCN(C)C)(OCCC/C=C\CCCCC)OCCC/C=C\CCCCC` [Example 101], the “fate of the lipid in the lungs by 24 h, in words” value under setting [1] is listed as “close to complete lipid hydrolysis”.
On the same count and under the same terms, next, `CCCCC/C=C\CCCO[Si](CCCCN(C)CCO)(OCCC/C=C\CCCCC)OCCC/C=C\CCCCC` [Example 102]: “close to complete lipid hydrolysis”.
Turning to `CCCCC/C=C\CCCC(CCC/C=C\CCCCC)C(CCC/C=C\CCCCC)OC(=O)CCCCN(C)C` (stereo not shown) [Example 103], the “% Cationic Lipid Remaining” value was determined as 100% (Balb/C, mouse, in vivo); 120% (Balb/C, mouse, in vivo, 1 h); 90% (Balb/C, mouse, in vivo, 6 h); 94% (Balb/C, mouse, in vivo, 24 h). Also, the “fate of the lipid in the lungs by 24 h, in words” value (Balb/C, mouse, in vivo, 24 h) is on record as “remained in the lungs for the complete 24 h”.
